The numbers were not newly measured in patent US8389572B2, “Therapeutic delivery of carbon monoxide” (hemoCORM Limited, priority 2006, dated 2013), which cites them from elsewhere.

For this data set the following is noted: disclosed in WO 02/092075 and WO 2004/045598.

In the case of `F[P-](F)(F)(F)(F)F.O=[C]=[Fe](=[C]=O)(=[C]=O)[CH]1C=CC=C1` [[CpFe(CO)3]PF6], the “precipitate during release of CO” value was “produced a precipitate during release of CO”. For the same compound, the solubility result (solvent) is on record as “soluble in dimethylsulphoxide (DMSO)”.
